Experimental data published in ChEMBL document CHEMBL5335818, “A MassQL-Integrated Molecular Networking Approach for the Discovery and Substructure Annotation of Bioactive Cyclic Peptides” (J Nat Prod, 2024).
Activity calls are given as the source filed them. The calls are words filed in the database; no cut-off is given here.

Columns and labels:
[1] = biological target: Vasopressin V1a receptor (Homo sapiens) (UniProt P37288); experiment: Antagonist activity at V1A receptor (unknown origin) assessed as reduction in AVP-induced V1A receptor signaling; format: functional
[2] = biological target: Vasopressin V1a receptor (Homo sapiens) (UniProt P37288); experiment: Antagonist activity at V1A receptor (unknown origin) transfected in HEK293 cells assessed as inhibition of AVP-induced cell activation at 31.6 uM incubated for 16 mins by label-free DMR assay relative to control; format: functional, cell-based
[3] = biological target: Muscarinic acetylcholine receptor M3 (Homo sapiens) (UniProt P20309); experiment: Antagonist activity at endogenous muscarinic M3 receptor in HEK293 cells assessed as inhibition of carbachol-induced cell activation at 1 to 31.6 uM incubated for 16 mins by label-free DMR assay; format: functional, cell-based; details: dose 1-31.6 µM
[4] = biological target: Vasopressin V1a receptor (Homo sapiens) (UniProt P37288); experiment: Activation of V1A receptor (unknown origin) mediated signaling transfected in HEK293 cells at 0.1 to 31.6 uM incubated for 16 mins by label-free DMR assay; format: functional, cell-based; details: dose 0.1-31.6 µM
[5] = biological target: Vasopressin V1a receptor (Homo sapiens) (UniProt P37288); experiment: Antagonist activity at V1A receptor (unknown origin) transfected in HEK293 cells assessed as inhibition of AVP-induced cell activation at 1 to 31.6 uM incubated for 16 mins by label-free DMR assay; format: functional, cell-based; details: filed as antagonist, dose 1-31.6 µM
[6] = biological target: Vasopressin V1a receptor (Homo sapiens) (UniProt P37288); experiment: Activation of endogenous V1A receptor signaling in HEK293 cells at 0.1 to 31.6 uM incubated for 16 mins by label-free DMR assay; format: functional, cell-based; details: dose 0.1-31.6 µM

Sequence of Vasopressin V1a receptor (Homo sapiens) (P37288 whole entry, looked up): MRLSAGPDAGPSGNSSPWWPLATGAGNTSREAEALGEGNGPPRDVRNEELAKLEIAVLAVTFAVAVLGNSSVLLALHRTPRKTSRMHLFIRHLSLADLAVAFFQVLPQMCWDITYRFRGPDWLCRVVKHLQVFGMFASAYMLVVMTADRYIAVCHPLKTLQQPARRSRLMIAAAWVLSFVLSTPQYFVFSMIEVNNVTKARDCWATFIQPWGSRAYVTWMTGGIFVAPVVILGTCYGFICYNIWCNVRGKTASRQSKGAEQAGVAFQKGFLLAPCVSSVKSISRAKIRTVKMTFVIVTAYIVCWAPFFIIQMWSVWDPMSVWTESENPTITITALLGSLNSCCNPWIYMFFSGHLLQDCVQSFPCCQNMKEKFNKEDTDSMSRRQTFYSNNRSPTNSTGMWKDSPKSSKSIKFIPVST
Sequence of Muscarinic acetylcholine receptor M3 (Homo sapiens) (P20309 whole entry, looked up): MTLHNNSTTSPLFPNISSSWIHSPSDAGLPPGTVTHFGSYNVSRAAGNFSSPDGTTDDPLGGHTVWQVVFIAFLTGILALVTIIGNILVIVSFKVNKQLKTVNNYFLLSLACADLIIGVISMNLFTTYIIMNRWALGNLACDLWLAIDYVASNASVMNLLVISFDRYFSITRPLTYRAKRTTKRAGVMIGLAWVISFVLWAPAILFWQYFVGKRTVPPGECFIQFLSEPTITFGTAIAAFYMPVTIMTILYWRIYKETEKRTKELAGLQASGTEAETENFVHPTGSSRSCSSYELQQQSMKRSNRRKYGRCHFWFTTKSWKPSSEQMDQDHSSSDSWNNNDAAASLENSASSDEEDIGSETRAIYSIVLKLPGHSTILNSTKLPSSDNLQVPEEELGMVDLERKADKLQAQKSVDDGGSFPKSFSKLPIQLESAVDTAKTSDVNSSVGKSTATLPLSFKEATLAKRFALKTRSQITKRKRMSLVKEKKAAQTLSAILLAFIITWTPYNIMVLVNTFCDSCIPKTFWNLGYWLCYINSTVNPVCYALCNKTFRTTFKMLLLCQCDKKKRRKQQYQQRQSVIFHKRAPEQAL

Row | Activity [1] | inhibition [2] | Activity [3] | Activity [4] | Activity [5] | Activity [6] | Activity ([1]; filed as antagonist) | Structure (SMILES)
1 | inactive |  |  |  |  |  |  | CC(C)C[C@@H]1NC(=O)[C@H](Cc2ccoc2)N(C)C(=O)[C@H](C(C)C)NC(=O)[C@H](Cc2ccoc2)N(C)C1=O
2 |  | 22% | inactive | inactive | Active | inactive | Active | CC(C)[C@@H]1NC(=O)[C@@H]2CCCN2C(=O)[C@H](Cc2ccoc2)NC(=O)[C@H](Cc2ccoc2)N(C)C1=O
3 | inactive |  |  |  |  |  |  | CC(C)C[C@@H]1NC(=O)[C@H](Cc2ccoc2)N(C)C(=O)[C@H](C(C)C)NC(=O)[C@@H]2CCCN2C1=O
